Laboratory results: patent US20260242373A1, “NBD1 MODULATORS AND METHODS OF USING THE SAME” (Sionna Therapeutics Inc., priority 2023, published 2026)

Each molecule was assayed on NBD1 (assay: Aggregation analysis of NBD1 thermal stability by differential static light scattering (DSLS)). Conditions: 100 μM compound; ΔTagg versus DMSO control.
Format: binding, Human
Protocol: Purified recombinant NBD1 was produced using previously described methods (A. Schmidt, J. L. Mendoza, P. J. Thomas (2011) Biochemical and Biophysical Approaches to Probe CFTR Structure (365-376) M. D. Amaral, K. Kunzelmann (eds.), Cystic Fibrosis, Methods in Molecular Biology 741, Springer Science+Business Media). The effect of test compounds on thermal stability of NBD1 was evaluated by differential static light scattering (DSLS) using the Harbinger Stargazer-384 instrument (Epiphyte Three, Toronto, Canada). Test compounds were dissolved and diluted to desired concentrations in 100% DMSO. The compounds or DMSO controls (100 nL) were stamped into wells of a […] low volume optical plate (Corning Inc., Corning, NY) using the Echo 555 acoustic liquid handler (Labcyte Inc., San Jose, CA).
NBD1 protein was diluted to 0.2 mg/ml in S200 buffer (50 mM Tris-HCl, 150 mM NaCl, 5 mM MgCl2, 2 mM ATP, 2 mM DTT, pH7.6) containing 1% glycerol. 10 uL of protein solution was aliquoted into the 384-well plate harboring the test compounds and 10 uL mineral oil was overlayed onto the protein solution, using the epMotion robotic liquid handler (Eppendorf North America, Hauppauge, NY). After placing into the Stargazer instrument, the plate was heated at 1° C. per minute to 70° C. Images were captured from 25° C. to 70° C. every 0.5° C. At the end of the experiment run, instrument software integrated image files and analyzed data automatically. A […] regression curve was generated for each well, representing the increase in light scattering over time. A temperature of aggregation (Tagg) was calculated based on the inflection point of the curve. To better compare data across experiments the average Tagg for DMSO control wells was calculated and subtracted from values for wells containing compounds to obtain a “ΔTagg” value. These ΔTagg values reflect stabilizing efficacy of the compounds.

Compound | DSLS NBD1/3D Human Stability delta-T (° C.) @ 100 (μM)
O=C(O)CCc1ncc(Cc2cnc(-c3cc(Oc4c(F)cc5[nH]ccc5c4F)ccc3F)[nH]2)s1 [Compound 2, 3-(5-((2-(5-((4,6-difluoro-1H-indol-5-yl)oxy)-2-fluorophenyl)-1H-imidazol-5-yl)methyl)thiazol-2-yl)propanoic acid] | B (B: 4-8° C.)
Cn1cc(C(O)c2nnc(-c3cccc(Oc4ccc5[nH]ccc5c4)c3)[nH]2)cn1 (stereo not drawn) [Compound 30, (5-(3-((1H-indol-5-yl)oxy)phenyl)-4H-1,2,4-triazol-3-yl)(1-methyl-1H-pyrazol-4-yl)methanol] | B (B: 4-8° C.)
Cc1csc(Cc2nnc(-c3cccc(Oc4ccc5[nH]ccc5c4)c3)[nH]2)n1 [Compound 15, 2-((5-(3-((1H-indol-5-yl)oxy)phenyl)-4H-1,2,4-triazol-3-yl)methyl)-4-methylthiazole] | C (C: ≤4° C.)
CSc1cc(C(C)c2cccc(CCC(=O)O)c2F)nn1-c1cc(Oc2c(F)cc3[nH]ccc3c2F)ccc1F (stereo not drawn) [Compound 52, 3-(3-(1-(1-(5-((4,6-difluoro-1H-indol-5-yl)oxy)-2-fluorophenyl)-5-(methylthio)-1H-pyrazol-3-yl)ethyl)-2-fluorophenyl)propanoic acid] | C (C: ≤4° C.)
Cc1ccc(Cc2nnc(-c3cccc(Oc4cc5cc[nH]c5cn4)c3)[nH]2)s1 [Compound 8, 5-(3-(5-((5-methylthiophen-2-yl)methyl)-4H-1,2,4-triazol-3-yl)phenoxy)-1H-pyrrolo[2,3-c]pyridine] | C (C: ≤4° C.)
CC(C1=NN(c2cc(Oc3c(F)cc4[nH]ccc4c3F)ccc2F)C(=O)C1)c1cccc(CCC(=O)O)c1F (stereo not drawn) [Compound 51, 3-(3-(1-(1-(5-((4,6-difluoro-1H-indol-5-yl)oxy)-2-fluorophenyl)-5-oxo-4,5-dihydro-1H-pyrazol-3-yl)ethyl)-2-fluorophenyl)propanoic acid] | B (B: 4-8° C.)
Cc1ncc(C(O)c2nnc(-c3cccc(Oc4ccc5[nH]ccc5c4C(=O)O)c3)[nH]2)s1 (stereo not drawn) [Compound 38, 5-(3-(5-(hydroxy(2-methylthiazol-5-yl)methyl)-4H-1,2,4-triazol-3-yl)phenoxy)-1H-indole-4-carboxylic acid] | C (C: ≤4° C.)
Cn1cc(C(O)c2cnc(-c3cccc(Oc4ccc5[nH]ccc5c4)c3)[nH]2)cn1 (stereo not drawn) [Compound 27, (2-(3-((1H-indol-5-yl)oxy)phenyl)-1H-imidazol-5-yl)(1-methyl-1H-pyrazol-4-yl)methanol] | B (B: 4-8° C.)
Cc1ccc(C(O)c2c[nH]c(-c3cccc(Oc4ccc5[nH]ccc5c4)c3)n2)s1 (stereo not drawn) [Compound 20, (2-(3-((1H-indol-5-yl)oxy)phenyl)-1H-imidazol-4-yl)(5-methylthiophen-2-yl)methanol] | B (B: 4-8° C.)
Cc1ncc(C(O)c2nnc(-c3cccc(Oc4ccc5[nH]ccc5c4CO)c3)[nH]2)s1 (stereo not drawn) [Compound 37, (5-(3-((4-(hydroxymethyl)-1H-indol-5-yl)oxy)phenyl)-4H-1,2,4-triazol-3-yl)(2-methylthiazol-5-yl)methanol] | B (B: 4-8° C.)
Cn1nccc1C(O)c1cnc(-c2cccc(Oc3ccc4[nH]ccc4n3)c2)[nH]1 (stereo not drawn) [Compound 33, (2-(3-((1H-pyrrolo[3,2-b]pyridin-5-yl)oxy)phenyl)-1H-imidazol-5-yl)(1-methyl-1H-pyrazol-5-yl)methanol] | C (C: ≤4° C.)
CC(c1cccc(CC(=O)O)c1F)n1cc(F)c(-c2ccc(F)c(Oc3c(F)cc4[nH]ccc4c3S(C)(=O)=O)c2)n1 (stereo not drawn) [Compound 55, 2-(2-fluoro-3-(1-(4-fluoro-3-(4-fluoro-3-((6-fluoro-4-(methylsulfonyl)-1H-indol-5-yl)oxy)phenyl)-1H-pyrazol-1-yl)ethyl)phenyl)acetic acid] | A (A: T ≥8° C.)
CCOc1cc(C(C)c2cccc(CCC(=O)O)c2F)nn1-c1cc(Oc2c(F)cc3[nH]ccc3c2F)ccc1F (stereo not drawn) [Compound 49, 3-(3-(1-(1-(5-((4,6-Difluoro-1H-indol-5-yl)oxy)-2-fluorophenyl)-5-ethoxy-1H-pyrazol-3-yl)ethyl)-2-fluorophenyl)propanoic acid] | B (B: 4-8° C.)
Cn1cc(C(O)c2cnc(-c3cccc(Oc4ccc5[nH]ccc5n4)c3)[nH]2)cn1 (stereo not drawn) [Compound 32, (2-(3-((1H-pyrrolo[3,2-b]pyridin-5-yl)oxy)phenyl)-1H-imidazol-5-yl)(1-methyl-1H-pyrazol-4-yl)methanol] | C (C: ≤4° C.)
Clc1ccc(Cc2n[nH]c(-c3cccc(Oc4cc5cc[nH]c5cn4)c3)n2)s1 [Compound 19, 5-(3-(3-((5-chlorothiophen-2-yl)methyl)-1H-1,2,4-triazol-5-yl)phenoxy)-1H-pyrrolo[2,3-c]pyridine] | C (C: ≤4° C.)
Cc1cnc(C(O)c2c[nH]c(-c3cccc(Oc4ccc5[nH]ccc5c4)c3)n2)s1 (stereo not drawn) [Compound 22, (2-(3-((1H-indol-5-yl)oxy)phenyl)-1H-imidazol-4-yl)(5-methylthiazol-2-yl)methanol] | B (B: 4-8° C.)
O=C(O)CCc1cccc(Cc2cc(N3CCCCC3=O)n(-c3cc(Oc4c(F)cc5[nH]ccc5c4F)ccc3F)n2)c1 [Compound 57, 3-[3-[[1-[5-[(4,6-difluoro-1H-indol-5-yl)oxy]-2-fluoro-phenyl]-5-(2-oxo-1-piperidyl)pyrazol-3-yl]methyl]phenyl]propanoic acid] | C (C: ≤4° C.)
Cc1cc(Cc2nnc(-c3cccc(Oc4cc5cc[nH]c5cn4)c3)[nH]2)cs1 [Compound 9, 5-(3-(5-((5-methylthiophen-3-yl)methyl)-4H-1,2,4-triazol-3-yl)phenoxy)-1H-pyrrolo[2,3-c]pyridine] | C (C: ≤4° C.)
CC(c1cc(N)n(-c2cc(Oc3c(F)cc4[nH]ccc4c3F)ccc2F)n1)c1cccc(CCC(=O)O)c1F (stereo not drawn) [Compound 48, 3-(3-(1-(5-amino-1-(5-((4,6-difluoro-1H-indol-5-yl)oxy)-2-fluorophenyl)-1H-pyrazol-3-yl)ethyl)-2-fluorophenyl)propanoic acid] | B (B: 4-8° C.)
O[C@H](Cc1cncs1)c1c[nH]c(-c2cccc(Oc3ccc4[nH]ccc4c3)c2)n1 (single isomer, unassigned) [Compound 23] | B (B: 4-8° C.)
C[C@H](c1nc(-c2cc(Oc3c(F)cc4[nH]ccc4c3F)ccc2F)n(C)n1)c1ccc(CCC(=O)O)s1 (single isomer, unassigned) [Compound 45] | A (A: T ≥8° C.)
Cc1ncc(C(O)c2nnc(-c3cccc(Oc4ccc5[nH]ccc5c4C(N)=O)c3)[nH]2)s1 (stereo not drawn) [Compound 39, 5-(3-(5-(hydroxy(2-methylthiazol-5-yl)methyl)-4H-1,2,4-triazol-3-yl)phenoxy)-1H-indole-4-carboxamide] | B (B: 4-8° C.)
O=C(O)CCc1ccc(Cc2cnc(-c3cc(Oc4c(F)cc5[nH]ccc5c4F)ccc3F)[nH]2)s1 [Compound 43, 3-(5-((2-(5-((4,6-difluoro-1H-indol-5-yl)oxy)-2-fluorophenyl)-1H-imidazol-5-yl)methyl)thiophen-2-yl)propanoic acid] | A (A: T ≥8° C.)
c1cc(Oc2ccc3[nH]ccc3c2)cc(-c2nnc(Cc3cscn3)[nH]2)c1 [Compound 13, 4-((5-(3-((1H-indol-5-yl)oxy)phenyl)-4H-1,2,4-triazol-3-yl)methyl)thiazole] | C (C: ≤4° C.)
Cc1c(Oc2ccc(F)c(-c3ccn(Cc4cnc(CCC(N)=O)s4)n3)c2)c(F)cc2[nH]ccc12 [Compound 6] | C (C: ≤4° C.)
Cn1nccc1C(O)c1cnc(-c2cccc(Oc3ccc4[nH]ccc4c3)c2)[nH]1 (stereo not drawn) [Compound 26, (2-(3-((1H-indol-5-yl)oxy)phenyl)-1H-imidazol-5-yl)(1-methyl-1H-pyrazol-5-yl)methanol] | C (C: ≤4° C.)
O=C(O)CCc1cccc(Cc2cc(NCCO)n(-c3cc(Oc4c(F)cc5[nH]ccc5c4F)ccc3F)n2)c1 [Compound 56, 3-(3-((1-(5-((4,6-difluoro-1H-indol-5-yl)oxy)-2-fluorophenyl)-5-((2-hydroxyethyl)amino)-1H-pyrazol-3-yl)methyl)phenyl) propanoic acid] | B (B: 4-8° C.)
